Values joined by “and” are separate entries in the source; they are usually repeats but may differ in a detail not shown here. Equal values may be shown once.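 Interpolation was linear, between the two tested concentrations surrounding the appropriate level; five concentrations were tested over 48 hours in 96-well plates. At the GI50, growth is halved. TGI: total growth inhibition.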
How the values were obtained:
Assay in all cases: NCI-60 cell line screen, 48 h
UO-31 renal = tested on: UO-31 renal
SR leukemia = tested on: SR leukemia
SNB-75 CNS = tested on: SNB-75 CNS
COLO 205 colon = tested on: COLO 205 colon
UACC-257 melanoma = tested on: UACC-257 melanoma
NCI-H23 lung = tested on: NCI-H23 lung
HOP-62 NSCLC = tested on: HOP-62 NSCLC
RPMI-8226 leukemia = tested on: RPMI-8226 leukemia
MCF7 breast = tested on: MCF7 breast
SK-OV-3 ovarian = tested on: SK-OV-3 ovarian

SMILES	TGI (UO-31 renal)	TGI (SR leukemia)	TGI (SNB-75 CNS)	TGI (COLO 205 colon)	TGI (UACC-257 melanoma)	TGI (NCI-H23 lung)	TGI (HOP-62 NSCLC)	TGI (RPMI-8226 leukemia)	TGI (MCF7 breast)	GI50 (UO-31 renal)	GI50 (SK-OV-3 ovarian)	TGI (SK-OV-3 ovarian)	GI50 (SR leukemia)	GI50 (SNB-75 CNS)	GI50 (COLO 205 colon)	GI50 (UACC-257 melanoma)	GI50 (NCI-H23 lung)	GI50 (HOP-62 NSCLC)	GI50 (RPMI-8226 leukemia)	GI50 (MCF7 breast)
Cc1ccc([N+](=O)[O-])c2c(NCCCN(C)C)ccnc12	> 100 µM	> 100 µM	> 100 µM	31.8 µM	> 91.1 µM	> 100 µM	> 100 µM	> 100 µM	> 100 µM											
Cc1c(C(=O)NN)nnn1-c1ccnc2c(C(F)(F)F)cccc12	> 100 µM	> 100 µM	> 100 µM	> 100 µM	> 100 µM	> 100 µM	> 100 µM	> 100 µM	> 100 µM	> 100 µM	> 100 µM	> 100 µM	> 100 µM	37.9 µM	> 100 µM	> 100 µM	> 100 µM	> 100 µM	> 100 µM	> 100 µM
NCCN1CCN(c2nccc(-c3ccc4ccccc4c3)n2)CC1	2.96 µM	6.11 µM	2.9 µM	3.41 µM	3.41 µM	16.5 µM	3.28 µM	5.72 µM	3.52 µM	1.5 µM	2.1 µM	5.34 µM	1.87 µM	1.41 µM	1.76 µM	1.86 µM	4.17 µM	1.76 µM	2.08 µM	1.67 µM
FC(F)(F)c1ccc2c(Nc3cccc(C4CC(c5ccccc5)=NN4c4ccc(Cl)cc4)c3)ccnc2c1 (centres undefined)	9.68 µM	9.41 µM	20.8 µM	> 100 µM	32.6 µM	25.3 µM		6.46 µM	10.6 µM	1.82 µM	11.2 µM	36.4 µM	1.26 µM	2.67 µM	10.7 µM	11.2 µM	4.22 µM		2.3 µM	1.67 µM
COc1cc(-c2cn(C)c(=O)c(C)c2C)cc(OC)c1CN1CC[C@H](N2CCN(c3ccc(N[C@H]4CCC(=O)NC4=O)cc3F)CC2)C(F)(F)C1	17.6 µM	51 µM	21.9 µM	37.4 µM	24.2 µM	28.6 µM	39.2 µM	> 100 µM	29.6 µM	4.56 µM	18.4 µM	36.2 µM	6.7 µM	5.2 µM	14.4 µM	10.5 µM	14 µM	14 µM	6.43 µM	3.16 µM
Clc1ccc(OCc2nnc3n2N=C(c2ccc(Cl)cc2Cl)CS3)c(Cl)c1	47.5 µM	46.5 µM	48.7 µM	> 100 µM	52 µM	55.4 µM	78.6 µM	63.7 µM	92.8 µM	18.2 µM	43 µM	> 100 µM	17.3 µM	12.2 µM	34.7 µM	24 µM	22.5 µM	27.8 µM	23.4 µM	22.5 µM
CCn1c(-c2nonc2N)nc2ccc(F)cc21	> 25 µM	> 25 µM	> 25 µM	> 25 µM	> 25 µM	> 25 µM	> 25 µM	> 25 µM	> 25 µM	> 25 µM	> 25 µM	> 25 µM	> 25 µM	> 25 µM	> 25 µM	> 25 µM	> 25 µM	> 25 µM	> 25 µM	> 25 µM
O=P(O)(O)C(O)(Cn1ccnc1)P(=O)(O)O	> 100 µM	> 100 µM	> 100 µM	> 100 µM	> 100 µM	> 100 µM	> 100 µM	> 100 µM	> 100 µM	> 68.3 µM	> 81.1 µM	> 100 µM	> 100 µM	> 37.4 µM	> 100 µM	> 100 µM	> 89.7 µM	> 55 µM	15.6 µM	> 86.4 µM
Cc1ccc(C(=O)CC(Sc2cccc(Cl)c2Cl)c2ccc(Cl)cc2)cc1C (centres undefined)	40.9 µM	> 100 µM		46.5 µM	48.6 µM	32.6 µM	60.6 µM	48.2 µM	36.1 µM	20 µM	23.3 µM	59.7 µM	7.23 µM		20.8 µM	20.9 µM	17.4 µM	24.2 µM	5.76 µM	15.9 µM
CCCNCc1cc(C)cc2c1nc(N1CCNCC1)n2Cc1cc(C)c(F)c(C)c1	27.3 µM	3.39 µM	26.4 µM	3.42 µM		27.3 µM	32.2 µM	5.29 µM	6.05 µM	13.2 µM	15.8 µM	29.4 µM	1.22 µM	12.1 µM	1.82 µM		12.8 µM	17 µM	2.09 µM	2.25 µM
CC(=O)[CH-]C(C)=O.CC(=O)[CH-]C(C)=O.N=CC=N.[Sn+2]	21.1 µM	5.3 µM	13.7 µM	3.61 µM	15.9 µM	10.9 µM	33.9 µM	4.38 µM	12 µM	9 µM	8.74 µM	21.7 µM	1.06 µM	3.7 µM	2.02 µM	4.64 µM	3.23 µM	19.3 µM	1.48 µM	2.63 µM
Oc1c(Br)cc(CN(Cc2cc(Br)c(O)c(Br)c2)C2CCCCC2)cc1Br	> 100 µM	> 100 µM	> 100 µM	> 100 µM	> 100 µM	> 100 µM	> 100 µM	> 100 µM	> 100 µM			> 100 µM								
CNc1nc(NC2CCCC2)nc(Sc2ccc(OC)cc2)n1	> 10 µM	> 10 µM	> 10 µM	> 10 µM	> 10 µM	> 10 µM	> 10 µM	> 10 µM	> 10 µM	> 10 µM	> 10 µM	> 10 µM	> 10 µM	> 10 µM	> 10 µM	> 10 µM	> 10 µM	> 10 µM	> 10 µM	> 10 µM
CC(=O)O[C@H]1C(=O)[C@@]2(C)[C@H]([C@H](OC(=O)c3ccccc3)[C@]3([O-])C[C@H](OC(=O)[C@H]([O-])[C@@H](NC(=O)c4ccccc4)c4ccccc4)C(C)=C1C3(C)C)[C@]1(OC(C)=O)CO[C@@H]1C[C@@H]2[O-].[Fe+3]	65 µM and > 100 µM		0.274 µM and 0.505 µM	0.226 µM and 0.508 µM	65 µM and > 100 µM	65 µM and > 100 µM	10.5 µM and 48.8 µM	65 µM and > 100 µM	65 µM and 32.7 µM	4.45 µM and 4.87 µM	0.0724 µM and 0.142 µM	11.9 µM and > 100 µM	0.0268 µM and 0.199 µM	0.0222 µM and 0.023 µM	0.0365 µM and 0.0432 µM		0.0685 µM and 0.164 µM		0.0294 µM and 0.074 µM	0.0226 µM and 0.0315 µM
Cc1ccc2/c(=C/c3ccc(N(C)C)cc3)c3cc(-c4ccccc4)[n+](C)n3c2c1			2.02 µM		1.71 µM	1.9 µM	7.33 µM		11.3 µM	0.92 µM			< 0.01 µM	0.144 µM		0.0307 µM	0.0836 µM	0.257 µM		0.036 µM
Cc1sc(C)c(-c2ccc(CO)o2)c1-c1ccc(CO)o1	> 100 µM	> 100 µM	> 100 µM			> 100 µM	> 100 µM	> 100 µM	> 100 µM	28.8 µM	16.5 µM	> 100 µM	> 77.9 µM	25.4 µM			> 100 µM	0.372 µM	13.5 µM	0.0787 µM
Cn1c(N)nc2c(nc(OCc3ccccc3)n2C2OC(CO)C(O)C2O)c1=O (centres undefined)	> 100 µM	> 100 µM	> 100 µM	> 100 µM	> 100 µM		> 100 µM	> 100 µM	> 100 µM			> 100 µM								
CN(C)c1nc(-c2cccs2)n2nc(-c3ccc(Cl)cc3)cc2n1		> 100 µM	10.4 µM			> 100 µM	6.53 µM	> 100 µM	> 100 µM				> 100 µM	2.26 µM			6.51 µM	2.27 µM	> 100 µM	> 100 µM
COc1ccccc1C(=O)c1ccc2ccccc2c1	64.7 µM	16.1 µM	> 100 µM	61.5 µM	> 100 µM	> 100 µM	> 100 µM	97.5 µM	> 100 µM											
Cc1ncc([N+](=O)[O-])n1CCNC(=O)CCCCn1ccnc1[N+](=O)[O-]	> 100 µM	> 100 µM	> 100 µM	> 100 µM	> 100 µM	> 100 µM	> 100 µM		> 100 µM			> 100 µM								
Nc1ccc(SC23CC4CC(CC(C4)C2)C3)cc1	> 100 µM	> 100 µM		> 100 µM	> 100 µM	> 100 µM	> 100 µM	> 100 µM	> 100 µM			> 100 µM								
CCOC(=O)[C@@H](C)C[C@H](Cc1ccccc1)NC(=O)c1csc([C@@H](C[C@H](C(C)C)N(C)C(=O)[C@@H](NC(=O)[C@H]2CCCCN2C)C(C)(C)C)OC(C)=O)n1	> 10.8 µM	> 16.7 µM	12.6 µM	0.00432 µM		> 16.7 µM	> 16.7 µM	> 6.36 µM	> 16.7 µM	0.00297 µM	< 0.00167 µM	> 16.7 µM	< 0.00167 µM	< 0.00167 µM	< 0.00167 µM		< 0.00167 µM	< 0.00167 µM	< 0.00167 µM	< 0.00167 µM

From PubChem BioAssay (NCI)
